According to patent US20040072811A1, “Use of antiprogestins for the induction of apoptosis in a cell” (priority 2000, published 2004):
“Also recorded” adds a separate entry of the source.

Tests used:
[1] = system: T47D cells; assay: Antiproliferative activity in vitro in the T47D cell line (estradiol-stimulated, crystal violet); format: cell-based, human; conditions: 0.1 nM estradiol, 6 days
Description: T47D cells were grown in charcoal-treated serum supplemented with 0.1 nM E2 (estradiol) plus antiprogestin (I) for 6 days with one medium change. Following fixation and subsequent staining with crystal violet, the absorbance was recorded and values normalized to the absorbance of untreated controls as described in R. B. Lichtner, J. Steroid Biochem. Mol. Biol. 1999, 71; 181-189. The TUNEL assay is performed analogous to above Example 5 with the only difference that instead of tissue sections cells that are cultivated on microscopic slides are used for the assay.

[2] = system: DMBA-induced mammary carcinoma of the rat; assay: Dose-response study in the DMBA-induced mammary tumor model; format: in vivo, Sprague-Dawley rats; conditions: 5 mg/kg s.c. daily, 4 weeks
Description: Immature female Sprague-Dawley rats (49-51 days old; 10 animals/group) were used in this study. Mammary tumors were induced by a single oral administration of 10 mg 7,12-dimethylbenz[a]anthracene (DMBA, Serva/Heidelberg). Rats with at least one established tumor with a size of more than 150 mm^2 were treated for 4 weeks by: 1) solvent control, 2) ovariectomy at treatment start, 3) antiprogestin (I), 0,5 mg/kg s.c., 4) antiprogestin (1), 2 mg/kg s.c., 5) antiprogestin (I), 5 mg/kg s.c., 6) antiprogestin (1), 10 mg/kg s.c., and 7) onapristone, 5 mg/kg, s.c., daily. As a parameter for growth inhibition the change of tumor area (in % with respect to initial tumor size) determined by weekly caliper measurements was used. For statistical analysis of intergroup differences of mean values the Kruskal-Wallis-test was used. For a further description and evaluation of the DMBA prevention model, see R. G. Metha, European Journal of Cancer 36 (2000), pp. 1275-1282.

[3] = system: NMU-induced mammary carcinoma of the rat; assay: Tumor growth inhibition in NMU-induced breast cancer model in rat; format: in vivo, Sprague-Dawley rats; conditions: 5 mg/kg/day, 4 weeks
Description: Tumors were induced by a single intravenous injection of NMU (nitrosomethylurea, 50 mg/kg) in female Sprague-Dawley rats (obtained from Tierzucht Schönwalde, age 50-55 days). Starting 10 days later, rats with at least one established tumor were treated for 4 weeks by: 1) solvent control, 2) ovariectomy at treatment start, 3) antiprogestin (I), 1.0 mg/kg/day, 4) antiprogestin (1), 0.5 mg/kg/day and 5) onapristone, 5 mg/kg/day. As a parameter for growth inhibition the change of tumor area (in % of initial tumor size) determined by weekly caliper measurements was used. For statistical analysis of intergroup differences of mean values the Kruskal-Wallis-test was used.

Row | Compound | inhibition of estradiol-stimulated T47D cell growth [1] | tumor growth inhibiting effect relative to antiprogestin (I) [2] | tumor growth inhibiting effect relative to antiprogestin (I) at 0.5 mg/kg [3]
1 | CN(C)c1ccc([C@H]2C[C@]3(C)[C@@H](CC[C@]3(O)CCCO)[C@@H]3CCC4=CC(=O)CCC4=C32)cc1 [onapristone, reference compound] | did not show any inhibiting effect; also recorded: no reducing effect on cell growth | distinctly less effective than antiprogestin (I) | distinctly less effective than antiprogestin (1)
2 | CN(CCCCC[C@@H]1Cc2cc(O)ccc2[C@@H]2[C@@H]1[C@@H]1CC[C@H](O)[C@@]1(C)C[C@@H]2F)CCCSCCCC(F)(F)C(F)(F)F [11β-fluoro-7α-{5-[N-methyl-N-3-(4,4,5,5,5-pentafluoropentylthio)-propylamino]-pentyl}-estra-1,3,5(10)-trien-3,17β-diol] | distinctly less effective than antiprogestin (I) |  | 
